According to publication PMC6283615, “Anilinoquinoline based inhibitors of trypanosomatid proliferation” (PLoS Neglected Tropical Diseases, 2018):
pEC50: −log10 of the molar value. ≈ marks a conversion by molar mass, not a printed value. Where two headings read alike, the source gives them in different places.

Columns and labels:
[1] = test system: L. major amastigote; assay: L. major intracellular amastigote luciferase assay in RAW 264.7 macrophages; type: cell-based, Leishmania major; conditions: Leishmania major, RAW264.7; intracellular amastigotes in RAW 264.7 macrophages, 96 h
Procedure, shortened: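 Murine RAW 264.7 macrophages were infected overnight with luciferase-expressing L. major metacyclic promastigotes (MOI 1:10). Non-internalized parasites were washed off before 96 h compound exposure (0.5–10,000 ng/mL) at 37°C, 5% CO2.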

[2] = test system: T. b. brucei (strain 427); assay: T. b. brucei proliferation assay (PrestoBlue, 48 h); type: cell-based, Trypanosoma brucei brucei; conditions: Trypanosoma brucei
Procedure, shortened: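 T. b. brucei strain 427, 2.5×10^3 per well in HMI-9, exposed to compounds from 50 μM in 1:2 dilutions, in triplicate. Incubated 48 h at 37°C, 5% CO2. PrestoBlue added for 4 h more, fluorescence read at ex 530/em 590 nm.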

[3] = test system: T. cruzi amastigote (Tulahuen strain expressing β-galactosidase); assay: Intracellular T. cruzi assay in 3T3 cells (beta-galactosidase, 96 h); type: cell-based, Trypanosoma cruzi; conditions: for pEC50: Trypanosoma cruzi, TULAHUEN, read-out: T. cruzi amastigote EC50
Procedure, shortened: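 3T3 cells in phenol-red-free DMEM with 2% FBS were infected with Tulahuen β-galactosidase trypomastigotes, 5×10^4 per well, and exposed to compounds from 50 μM in 1:2 serial dilutions, in triplicate. After 96 h at 37°C, 5% CO2, 500 μM CPRG in PBS with 0.5% NP40 was added for 4 h; absorbance was read at 590–595 nm.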

[4] = test system: T. congolense IL3000; assay: In vitro drug sensitivity assay for T. congolense (72 h); type: cell-based; conditions: Trypanosoma congolense, IL3000 strain
Description: In vitro drug sensitivity assay for T. congolense (72 h): Compounds were tested in vitro for efficacy against the IL3000 T. congolense (drug sensitive) strain which was originally derived from the Trans Mara I strain, isolated from a bovine in 1966 in Kenya. […] Compounds were assayed in at least three separate, independent experiments and an 11-point dilution curve was used to determine the EC50 values. Bloodstream form trypanosomes were supported in HMI-9 medium containing 20% bovine serum and were incubated with test compounds for 69 h at 34°C in a humidified atmosphere containing 5% CO2. Thereafter, 10 μL of Resazurin dye (12.5 mg in 100 mL of phosphate-buffered saline, Sigma-Aldrich, Buchs, Switzerland) was added for an additional 3 h. Plates were read using a fluorescence plate reader (Spectramax, Gemini XS, Bucher Biotec, Basel, Switzerland) using an excitation wavelength of 536 nm and an emission wavelength of 588 nm.

[5] = test system: T. vivax STIB 719 / ILRAD 560; assay: Ex vivo drug sensitivity assay for T. vivax (48 h); type: cell-based; conditions: Trypanosoma vivax, STIB719, 48 h
Description: Ex vivo drug sensitivity assay for T. vivax (48 h): Compounds were tested ex vivo against the STIB 719 / ILRAD 560 T. vivax (drug sensitive) strain which originated from the Y486 strain, isolated from a naturally infected bovine in 1976 in Zaria, Nigeria. Compounds were assayed in at least three separate, independent experiments and an 11-point dilution curve was used to determine the EC50 values. Bloodstream form trypanosomes were harvested from a highly parasitaemic mouse (via cardiac puncture) and were incubated with test compounds for 45 h at 37°C in a humidified atmosphere containing 5% CO2, supported in HMI-9 medium containing 20% bovine serum. Thereafter, Resazurin dye was added to monitor trypanosome viability as described in the preceding section.

[6] = Aqueous solubility; type: physicochemical
[7] = Human plasma protein binding; type: in vitro ADME; conditions: for fraction unbound: read-out: Human PPB (converted)
[8] = Human liver microsome intrinsic clearance; type: in vitro ADME; conditions: for microsomal CLint: liver microsomes
[9] = Rat hepatocyte intrinsic clearance; type: in vitro ADME; conditions: for hepatocyte CLint: hepatocytes
[10] = test system: P. fal. D6; design: method as in PMID 26087257, PMID 29301082; conditions: previously reported; cited from earlier work
[11] = LogD7.4; type: physicochemical; conditions: pH 7.4
[12] = test system: NIH/3T3 cells; assay: Drug toxicity to 3T3 cells (Alamar Blue, 96 h); type: cell-based
Description: In a 96-well plate, 5×10^4 NIH/3T3 (ATCC CRL-1658) cells (purchased from ATCC) in DMEM without phenol red supplemented with 2% FBS were added to each well. Cells were incubated for 2 h to allow for attachment. Compounds were added in triplicates at 200 μM and in serial dilutions 1:2 and incubated at 37°C, 5% CO2 for 96 h. […] Following incubation, 10 μL of Alamar Blue (ThermoFisher) were added to each well and cells incubated at 37°C, 5% CO2 for 4 h. Absorbance was read at 590–595 nm.

[13] = test system: HepG2 cells; assay: Drug toxicity to HepG2 cells (MTT, 48 h); type: cell-based, human; conditions: tested concentration ranges based on compound solubility
Procedure, shortened: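 HepG2 cells plated overnight, then exposed 48 h to twelve 1.6-fold dilutions (57–10,000 ng/mL) in duplicate at 37° C, 5% CO2. MTT added for 1 h at room temperature; formazan dissolved in acidified isopropanol, absorbance read.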

[14] = design: method as in PMID 29301082; conditions: lapatinib, Fig 1; cited from earlier work

Question: With CN1CCN(S(=O)(=O)c2ccc(-c3ccc4c(Nc5ccc(OCc6cccc(F)c6)c(Cl)c5)ccnc4c3)cc2)CC1 [Compound 1] as the compound, how does the pEC50 [1] read?
Answer: 5.80

Question: And the pEC50 [2]?
Answer: 7.10

Question: What about the pEC50 ([3]; NIH3T3, 96 h) of the same compound?
Answer: 6.14

Question: And the pEC50 [4]?
Answer: 6.85

Question: What about the pEC50 [5] of the same compound?
Answer: 7.40

Question: What about the solubility [6] of the same compound?
Answer: 0.3 µM (≈ 0.185 µg/mL)

Question: What about the fraction unbound [7] of the same compound?
Answer: < 0.01

Question: What about the microsomal CLint [8] of the same compound?
Answer: 140 µL/min/mg

Question: And the “Rat Hepatocyte CLint” value [9]?
Answer: 20 μL/min/10^6 cells

Question: What about the pEC50 [10] of the same compound?
Answer: 7.72

Question: With COc1ccc(Nc2ccnc3cc(-c4ccc(S(=O)(=O)N5CCN(C)CC5)cc4)ccc23)cc1Cl [Compound 6] as the compound, how does the pEC50 [1] read?
Answer: 5.85

Question: And the pEC50 [2]?
Answer: 6.66

Question: And the pEC50 ([3]; NIH3T3, 96 h)?
Answer: 5.42

Question: And the pEC50 [4]?
Answer: 6.07

Question: What about the pEC50 [5] of the same compound?
Answer: 6.80

Question: And the solubility [6]?
Answer: 100 µM (≈ 52.3 µg/mL)

Question: What about the “Human PPB” value [7] of the same compound?
Answer: 99%

Question: What about the microsomal CLint [8] of the same compound?
Answer: 270 µL/min/mg

Question: And the hepatocyte CLint [9]?
Answer: 44 µL/min/1e6 cells

Question: And the logD [11]?
Answer: < 1

Question: With Fc1cccc(COc2ccc(Nc3ccnc4cc(-c5cn[nH]c5)ccc34)cc2Cl)c1 [Compound 16] as the compound, how does the pEC50 [1] read?
Answer: 6.08

Question: What about the pEC50 [2] of the same compound?
Answer: 6.96

Question: What about the pEC50 ([3]; NIH3T3, 96 h) of the same compound?
Answer: 6.04

Question: What about the “SI (T. cruzi)” value ([3]; selectivity index calculated relative to 3T3 cells) of the same compound?
Answer: 2.5

Question: What about the pEC50 [4] of the same compound?
Answer: 6.33

Question: And the pEC50 [5]?
Answer: 6.82

Question: What about the solubility [6] of the same compound?
Answer: 12 µM (≈ 5.34 µg/mL)

Question: And the fraction unbound [7]?
Answer: < 0.01

Question: What about the microsomal CLint [8] of the same compound?
Answer: < 3 µL/min/mg

Question: And the hepatocyte CLint [9]?
Answer: 17 µL/min/1e6 cells

Question: What about the logD [11] of the same compound?
Answer: 4.6

Question: With COc1ccc(Nc2ccnc3cc(-c4cnc(N5CCN(C)CC5)nc4)ccc23)cc1Cl [Compound 23] as the compound, how does the pEC50 [1] read?
Answer: 5.70

Question: What about the pEC50 ([3]; NIH3T3, 96 h) of the same compound?
Answer: 6.21

Question: And the “3T3 TC50” value [12]?
Answer: 4.9 µM

Question: And the “HepG2 TC50” value [13]?
Answer: > 3 µM

Question: And the pEC50 [4]?
Answer: 6.85

Question: And the pEC50 [5]?
Answer: 7.40

Question: And the solubility [6]?
Answer: < 1 µM

Question: And the “Human PPB” value [7]?
Answer: 98%

Question: And the “Human Liver Microsome CLint” value [8]?
Answer: 170 µL/min/mg

Question: What about the hepatocyte CLint [9] of the same compound?
Answer: 45 µL/min/1e6 cells

Question: What about the LogD7.4 [11] of the same compound?
Answer: 4.3

Question: Which results are given for CS(=O)(=O)CCNCc1ccc(-c2ccc3ncnc(Nc4ccc(OCc5cccc(F)c5)c(Cl)c4)c3c2)o1 [Lapatinib, lapatinib, reference compound]?
Answer: pEC50 [1]: 4.96; pEC50 ([3]; NIH3T3, intracellular in 3T3 cells, 96 h): 4.89; pEC50 [10]: 6.33; solubility [14]: 12 µM (≈ 6.97 µg/mL)
